Molecular target: T1, PD-1/PD-L1 (Homo sapiens, UniProt Q9NZQ7)
T1 construct: purchased CisBio
Assay: PD1-PDL1 HTRF assay
Conditions: PD-1/PD-L1 homogenous time-resolved fluorescence (HTRF) binding assay; Tag1-PDL1 5 nM, Tag2-PD1 50 nM
From the text: The CisBio HTRF assay kit, purchased from CisBio only, was employed to determine the IC50 values of compounds. The PD1-PDL1 HTRF assay measures the interactions between the two proteins, PD1 and PDL1. The interaction is detected by using anti-Tag1 labeled with Europium (HTRF donor) which binds to PDL1 and anti-Tag2 labeled with XL665 (HTRF acceptor) which binds to PD1. When the two antibodies are in proximity, the excitation of the donor fluorophore results in FRET emission from the acceptor fluorophore. The presence of inhibitors for such an interaction result in reduction of HTRF signal.
The assay was conducted in 96-well white assay plates. All the reagents, including Tag1-PDL1, Tag2-PD1, Anti-Tag1-PDL1, Anti-Tag2-PD1 were thawed and diluted with PPI Europium Detection buffer to achieve the desired concentration as per the manufacturer's protocol. A 1000 μM stock solution of test inhibitors was prepared in DMSO. The stock solution was diluted in DMSO to prepare 8 concentrations (1000-0.001 μM). These stock solutions were further diluted in PPI Europium detection buffer to prepare 8 working stock solutions (100-0.0001 μM). To the 96-well plate, 2 μL of the test inhibitor working stock solutions were added followed by 4 μL of Tag1-PDL1 (5 nM) and 4 μL of Tag2-PD1 (50 nM). The plate was incubated at room temperature for 15 min. Subsequently, 10 μL of pre-mixed Anti-Tag1-PDL1 and Anti-Tag2-PD1 solution was added. The plate was sealed and incubated at room temperature for 1 h. The HTRF signal was read on Perkin Elmer Envision plate reader using excitation wavelength of 320 nm, emission wavelengths of 620 nm and 665 nm. Results were obtained by calculating the ratio of signal from acceptor at 665 nm to that of signal from donor at 620 nm multiplied by […]. The IC50 values were determined by the Hill equation using GraphPad Prism software.

T1 sequence (Q9NZQ7 19-238 limits assumed): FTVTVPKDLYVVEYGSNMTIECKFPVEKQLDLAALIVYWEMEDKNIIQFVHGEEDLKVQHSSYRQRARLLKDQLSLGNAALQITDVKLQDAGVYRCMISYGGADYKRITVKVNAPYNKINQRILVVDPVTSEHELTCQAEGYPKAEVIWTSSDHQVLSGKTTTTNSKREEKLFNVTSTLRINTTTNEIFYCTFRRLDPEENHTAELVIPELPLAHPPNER

| Compound | IC50 [nM] |
| --- | --- |
| Cc1c(-c2ccc3c(c2)OCCO3)cccc1-c1ccn2c(-c3ccc(CNCCC(=O)O)cc3)nnc2c1 [Example 61, 3-((4-(7-(3-(2,3-dihydrobenzo[b][1,4]dioxin-6-yl)-2-methylphenyl)-[1,2,4]triazolo[4,3-a]pyridin-3-yl)benzyl)amino)propanoic acid] | 100 to 1000 |
| Cc1c(-c2ccc(CNCCO)cc2)cccc1-c1cccc(-c2ccn3c(-c4ccc(CN5CCC[C@@H]5C(=O)O)cc4)nnc3c2)c1C [Example 62, (4-(7-(4″-(((2-hydroxyethyl)amino)methyl)-2,2′-dimethyl-[1,1′:3′,1″-terphenyl]-3-yl)-[1,2,4]triazolo[4,3-a]pyridin-3-yl)benzyl)-D-proline] | ≤ 10 |
| Cc1c(-c2ccn3c(-c4ccc(CN5CCC[C@@H]5C(=O)O)cc4)nnc3c2)cccc1-c1cccc(-c2cnc(CNCCO)cn2)c1C [Example 63, (4-(7-(3′-(5-(((2-hydroxyethyl)amino)methyl)pyrazin-2-yl)-2,2′-dimethyl-[1,1′-biphenyl]-3-yl)-[1,2,4]triazolo [4,3-α]pyridin-3-yl)benzyl)-D-proline] | 10 to 100 |
| Cc1c(-c2ccc(CNCCO)cc2)cccc1-c1cccc(-c2ccn3c(-c4ccc(CN5CCC[C@H]5C(=O)O)cc4)nnc3c2)c1C [Example 64, (4-(7-(4″-(((2-hydroxyethyl)amino)methyl)-2,2′-dimethyl-[1,1′:3′,1″-terphenyl]-3-yl)-[1,2,4]triazolo[4,3-α]pyridin-3-yl)benzyl)-L-proline] | ≤ 10 |
| Cc1c(-c2ccc(CNCCO)cc2)cccc1-c1cccc(-c2ccn3c(-c4ccc(CN5CC[C@@H](C(=O)O)C5)cc4)nnc3c2)c1C [Example 65, (R)-1-(4-(7-(4″-(((2-hydroxyethyl)amino)methyl)-2,2′-dimethyl-[1,1′:3′,1″-terphenyl]-3-yl)-[1,2,4]triazolo[4,3-α]pyridin-3-yl)benzyl)pyrrolidine-3-carboxylic acid] | 10 to 100 |
| OCCNCc1ccc(-c2cccc(-c3cccc(-c4ccn5c(-c6ccc(CNCCO)cc6)nnc5c4)c3Cl)c2Cl)cc1 [Example 66, 2-(((2′,2″-dichloro-3″-(3-(4-(((2-hydroxyethyl)amino)methyl)phenyl)-[1,2,4]triazolo[4,3-a]pyridin-7-yl)-[1,1′:3′,1″-terphenyl]-4-yl)methyl)amino)ethan-1-ol] | 10 to 100 |
| O=C(O)[C@H]1CCCN1Cc1ccc(-c2nnc3cc(-c4cccc(-c5cccc(-c6ccc(CNCCO)cc6)c5Cl)c4Cl)ccn23)cc1 [Example 67, (4-(7-(2,2′-dichloro-4″-(((2-hydroxyethyl)amino)methyl)-[1,1′:3′,1″-terphenyl]-3-yl)-[1,2,4]triazolo[4,3-a]pyridin-3-yl)benzyl)-D-proline] | ≤ 10 |
| Cc1c(NC(=O)c2ccc(CNCCO)cn2)cccc1-c1cccc(-c2ccn3c(-c4ccc(CN5CCC[C@@H]5C(=O)O)cc4)nnc3c2)c1C [Example 68, (4-(7-(3′-(5-(((2-hydroxyethyl)amino)methyl)picolinamido)-2,2′-dimethyl-[1,1′-biphenyl]-3-yl)-[1,2,4]triazolo[4,3-a]pyridin-3-yl)benzyl)-D-proline] | ≤ 10 |
| Cc1c(NC(=O)c2ccc(CNCCO)cn2)cccc1-c1cccc(-c2ccn3c(-c4ccc(CN5CCC[C@H]5C(=O)O)cc4)nnc3c2)c1C [Example 69, (4-(7-(31-(5-(((2-hydroxyethyl)amino)methyl)picolinamido)-2,2′-dimethyl-[1,1′-biphenyl]-3-yl)-[1,2,4]triazolo [4,3-α]pyridin-3-yl)benzyl)-L-proline] | ≤ 10 |
| Cc1c(NC(=O)c2ccc(CNCCO)cn2)cccc1-c1cccc(-c2ccn3c(-c4ccc(CNCCO)cc4)nnc3c2)c1C [Example 70, 5-(((2-hydroxyethyl)amino)methyl)-N-(3′-(3-(4-(((2-hydroxyethyl)amino)methyl)phenyl)-[1,2,4]triazolo[4,3-a]pyridin-7-yl)-2,2′-dimethyl-[1,1′-biphenyl]-3-yl)picolinamide] | ≤ 10 |
| Cc1c(NC(=O)c2ccc(CNC[C@H]3CCC(=O)N3)cn2)cccc1-c1cccc(-c2ccn3c(-c4ccc(CNC[C@H]5CCC(=O)N5)cc4)nnc3c2)c1C [Example 71, N-(2,2′-dimethyl-31-(3-(4-(((((R)-5-oxopyrrolidin-2-yl)methyl)amino)methyl)phenyl)-[1,2,4]triazolo[4,3-α]pyridin-7-yl)-[1,1′-biphenyl]-3-yl)-5-(((((R)-5-oxopyrrolidin-2-yl)methyl)amino)methyl)picolinamide] | 10 to 100 |
| COCCNCc1ccc(-c2nnc3cc(-c4cccc(-c5cccc(NC(=O)c6ccc(CNCCO)cn6)c5C)c4C)ccn23)cc1 [Example 72, 5-(((2-hydroxyethyl)amino)methyl)-N-(3′-(3-(4-(((2-methoxyethyl)amino)methyl)phenyl)-[1,2,4]triazolo[4,3-α]pyridin-7-yl)-2,2′-dimethyl-[1,1′-biphenyl]-3-yl)picolinamide] | ≤ 10 |
| Cc1c(-c2ccn3c(-c4ccc(CN5CCC[C@@H]5C(=O)O)cc4)nnc3c2)cccc1-c1cccc(-c2ccn3c(-c4ccc(CN5CCC[C@@H]5C(=O)O)cc4)nnc3c2)c1C [Example 73, (2′R)-((((2,2′-dimethyl-[1,1′-biphenyl]-3,3′-diyl)bis ([1,2,4]triazolo[4,3-ci]pyridine-7,3-diyl))bis(4,1-phenylene))bis(methylene))di-D-proline] | 10 to 100 |
| Cc1c(-c2ccc(CNC[C@@H]3CCC(=O)N3)cc2)cccc1-c1cccc(-c2ccn3c(-c4ccc(CNC[C@@H]5CCC(=O)N5)cc4)nnc3c2)c1C [Example 74, (S)-5-((((2′,2″-dimethyl-3″-(3-(4-(((((S)-5-oxopyrrolidin-2-yl)methyl)amino)methyl)phenyl)-[1,2,4]triazolo[4,3-a]pyridin-7-yl)-[1,1′:3′,1″-terphenyl]-4-yl)methyl)amino)methyl)pyrrolidin-2-one] | 10 to 100 |
| Cc1c(-c2ccc(CNCCO)cc2)cccc1-c1cccc(-c2ccn3c(-c4ccc(CNCCO)cc4)nnc3c2)c1C [Example 75, 2-((4-(7-(4″-(((2-hydroxyethyl)amino)methyl)-2,2′-dimethyl-[1,1′:3′,1″-terphenyl]-3-yl)-[1,2,4]triazolo[4,3-α]pyridin-3-yl)benzyl)amino)ethan-1-ol] | 10 to 100 |
| Cc1c(-c2ccc(CNC[C@H]3CCC(=O)N3)cc2)cccc1-c1cccc(-c2ccn3c(-c4ccc(CNC[C@H]5CCC(=O)N5)cc4)nnc3c2)c1C [Example 76, (R)-5-((((2′,2″-dimethyl-3″-(3-(4-(((((R)-5-oxopyrrolidin-2-yl)methyl)amino)methyl)phenyl)-[1,2,4]triazolo[4,3-α]pyridin-7-yl)-[1,1′:3′,1″-terphenyl]-4-yl)methyl)amino)methyl)pyrrolidin-2-one] | 10 to 100 |
| COc1nc(-c2cccc(-c3cccc(-c4ccn5c(-c6ccc(CNCCO)cc6)nnc5c4)c3C)c2C)ccc1CNCCO [Example 77, 2-((4-(7-(3′-(5-(((2-hydroxyethyl)amino)methyl)-6-methoxypyridin-2-yl)-2,2′-dimethyl-[1,1′-biphenyl]-3-yl)-[1,2,4]triazolo[4,3-ai]pyridin-3-yl)benzyl)amino)ethan-1-ol] | ≤ 10 |
| COc1cc(-c2cccc(-c3cccc(-c4ccn5c(-c6ccc(CNCCO)cc6)nnc5c4)c3C)c2C)ccc1CNCCO [Example 78, 2-((4-(7-(4″-(((2-hydroxyethyl)amino)methyl)-3″-methoxy-2,2′-dimethyl-[1,1′:3′,1″-terphenyl]-3-yl)-[1,2,4]triazolo[4,3-α]pyridin-3-yl)benzyl)amino)ethan-1-ol] | ≤ 10 |
| Cc1c(Nc2nccc3cc(CN4CC[C@@H](O)C4)cnc23)cccc1-c1cccc(-c2ccn3c(-c4ccc(CNC[C@@H]5CCC(=O)N5)cc4)nnc3c2)c1C [Example 79, (S)-5-(((4-(7-(3′-((3-(((R)-3-hydroxypyrrolidin-1-yl)methyl)-1,7-naphthyridin-8-yl)amino)-2,2′-dimethyl-[1,1′-biphenyl]-3-yl)-[1,2,4]triazolo[4,3-a]pyridin-3-yl)benzyl)amino)methyl)pyrrolidin-2-one] | ≤ 10 |
| Cc1c(Nc2nccc3cc(CN4CC[C@@H](O)C4)cnc23)cccc1-c1cccc(-c2ccn3c(-c4ccc(CN5CCC[C@@H]5C(=O)O)cc4)nnc3c2)c1C [Example 80, (4-(7-(3′-((3-(((R)-3-hydroxypyrrolidin-1-yl)methyl)-1,7-naphthyridin-8-yl)amino)-2,2′-dimethyl-[1,1′-biphenyl]-3-yl)-[1,2,4]triazolo[4,3-α]pyridin-3-yl)benzyl)-D-proline] | ≤ 10 |
| Cc1c(Nc2nccc3cc(CN4CC[C@@H](O)C4)cnc23)cccc1-c1cccc(-c2ccn3c(-c4ccc(CNCCO)cc4)nnc3c2)c1C [Example 81, (R)-1-((8-((3′-(3-(4-(((2-hydroxyethyl)amino)methyl)phenyl)-[1,2,4]triazolo[4,3-α]pyridin-7-yl)-2,2′-dimethyl-[1,1′-biphenyl]-3-yl)amino)-1,7-naphthyridin-3-yl)methyl)pyrrolidin-3-ol] | ≤ 10 |
